The text below walks through data of paper PMC12441834, “Highly Potent and Subtype-Selective Sperm-Specific Potassium Channel SLO3 Inhibitors Display High Tissue Exposure in the Murine Female Reproductive Tract” (ACS Pharmacology & Translational Science, 2025).

A short description of one series: Kinetic solubility. It counts as physicochemical. The settings on record: aqueous buffer, kinetic from dmso stock; pH 2.2; pH 6.8; read-out: Kinetic Solubility (pH 2.2; pH6.8).
The next series deals with Androgen (Testosterone) (Homo sapiens, UniProt P10275). Nature of the series: LeadProfilingScreen radioligand binding.
Series [1] is described as follows: Intrinsic clearance in liver microsomes. Format: in vitro ADME, human. The settings on record: for Human CLhep, % Hepatic blood flow: human liver microsomes; for CLhep predicted at 1 μM: human, liver microsomes, pH 7.4, human liver microsomes, read-out: Human CLhep (in vitro hepatic clearance from microsomal CLint). How it is done:
The in vitro intrinsic clearance (CLint) was investigated in commercially obtained hepatic microsomes from mouse, rat, and human donors using the substrate depletion (i.e., loss-of-parent vs time, or half-life (t 1/2) method) approach with analyte detection via liquid chromatography–tandem mass spectrometry (LC-MS/MS). For each species, mean %parent remaining values at each time point were calculated from replicate raw data (analyte:IS peak area ratios) and used to determine in vitro t 1/2 and CLint.
Experiments were carried out by using a robot-assisted liquid handler (Bravo with BenchCell, Agilent). The compound was incubated (1 μM final concentration) in buffer (100 mM potassium phosphate pH 7.4 with 3 mM MgCl2) containing hepatic microsomes (0.5 mg/mL final concentration) from each species, discretely, at 37 °C under constant orbital shaking. After 5 min (preincubation), reactions were initiated by the addition of nicotinamide adenine dinucleotide phosphate (NADPH, 1 mM final concentration). At selected time intervals (0, 3, 7, 15, 25, and 45 min) postaddition of NADPH, aliquots (50 μL) were taken and placed into a 96-shallow-well plate containing ice-cold acetonitrile (150 μL) with carbamazepine (IS, 50 nM). The plates were then centrifuged (3000 rcf at 4 °C) for 10 min. The supernatants were transferred to a new 96-shallow-well daughter plate and diluted (1:1 v/v) with water (Milli-Q filtered). The plates were then sealed for preparation for LC-MS/MS analysis (see below).
Analyte:IS peak area ratios generated by LC-MS/MS were used to construct natural log-transformed %parent remaining vs time plots (using t = 0 min post-NADPH addition sample data as the starting point set to 100%). In vitro compound t 1/2 values were calculated by using the following equation: t1/2=ln(2)/k where k is the slope from the linear regression analysis of the natural log-transformed data (using means from all replicates at each time point). Resulting t 1/2 values were then used to calculate hepatic CLint values according to the following equation and with the use of species-specific scale-up factors for liver weight (grams) per total body weight (kg): CLint=0.693/invitrot1/2×1mLincubation/0.5mgmicrosomes×45mgmicrosomes/1gramliver×garamliver/kgbodywt
^aScale-up factors used are 45 (rat) and 20 (human).
Predicted hepatic clearance (CLhep) was calculated by using the following equation: CLhep=Qh×CLint/Qh+CLint
Q h represents hepatic blood flow (mL/min/kg): 21 for humans, 70 for rats, and 90 for mouse.

The nature of series [2]: In vivo IV pharmacokinetics, rat cassette. The settings on record: Sprague-Dawley, plasma, 0.2 mg/kg, male SD rats, 0.2 mpk IV; for Vd: read-out: Vss; for clearance: read-out: rat in vivo CLp. How it is done:
In-life phase–Compounds were formulated in 12% ethanol, 48% PEG400, and 40% DMSO (v/v/v) at a concentration of 1 mg/mL and administered as a single 0.2 mg/kg IV dose (1 mL/kg) to male, Sprague–Dawley rats (n = 1; 342 g body weight) via injection into a surgically implanted jugular vein catheter. Blood samples were collected serially from a surgically implanted carotid artery catheter in each animal over multiple postadministration time points (0.033, 0.117, 0.25, 0.5, 1, 2, 4, 7, and 24 h) into chilled, K2EDTA anticoagulant-fortified tubes and immediately placed on wet ice. The blood samples were then centrifuged (1700 rcf, 5 min, 4 °C) in order to obtain plasma samples, which were stored at −80 °C until analysis by LC-MS/MS. VU6032735 was also dosed IV in C57Bl6 mice at 5 mg/kg IV to determine mouse PK. Formulation and experimental design were identical to those used for rats except that whole blood was used for analysis.
Plasma samples from the in-life phase of the study were thawed at ambient temperature (benchtop), and then, aliquots (20 μL per sample) were transferred to a 96-shallow-well (V-bottom) plate. Matrix-matched quality control (QC) samples and a standard curve of the compound (1 mg/mL DMSO stock solution) were prepared in blank rat plasma (K2EDTA-treated) via serial dilution and transferred (20 μL each) to the plate along with multiple blank plasma and tissue homogenate samples. Acetonitrile (120 μL) containing IS (10 nM carbamazepine) was added to each well of the plate to precipitate the protein. The plate was then centrifuged (4000 rcf, 5 min, ambient temperature), and the resulting supernatants (60 μL each) were transferred to a new 96-shallow-well (V-bottom) plate containing an equal volume (60 μL per well) of water (Milli-Q purified). The plate was then sealed for LC-MS/MS analysis.
Samples were analyzed via electrospray ionization (ESI) LC-MS/MS on an AB Sciex 4500 (Foster City, CA) triple-quadrupole instrument that was coupled with an Agilent 1290 Infinity Binary Pump and multisampler (Santa Clara, CA) and concentrations (ng/mL or ng/g) were determined using a matrix-matched 10-point standard curve and then converted to nM concentrations. Quantitation of compounds was performed via AB Sciex Multiquant software using the raw analyte:IS peak area ratios. The typical detection range was 0.5 ng/mL to ≥5000 ng/mL utilizing a quadratic equation regression with 1/x² weighting. Correction for dilution of all tissue samples was performed postquantitation. The corrections for dilution in the extraction buffer employed correction factors specific to each tissue weight.

In another series the target is Neuropeptide Y Y2 (Homo sapiens, UniProt P49146). Kind of series: LeadProfilingScreen radioligand binding.
A further series addresses Dopamine D2S (Homo sapiens, UniProt P14416). Kind of series: LeadProfilingScreen radioligand binding.
The subject of the next series is Rolipram. Nature of the series: LeadProfilingScreen radioligand binding. Also on record: species or system rat.
In a further series the target is Adenosine A2A (Homo sapiens, UniProt P29274). Kind of series: LeadProfilingScreen radioligand binding.
For another series, the system named is Phorbol Ester. Nature of the series: LeadProfilingScreen radioligand binding. The arrangement: species or system mouse.
The target in the next series is Transporter, GABA (Rattus norvegicus, UniProt P23978). Nature of the series: LeadProfilingScreen radioligand binding.
For a further series, the target named is Adenosine A3 (Homo sapiens, UniProt P0DMS8). Nature of the series: LeadProfilingScreen radioligand binding.
In another series the target is Endothelin ETB (Homo sapiens, UniProt P24530). Kind of series: LeadProfilingScreen radioligand binding.
Series [3] deals with Serotonin (5-Hydroxytryptamine) 5-HT1A (Homo sapiens, UniProt P08908). Nature of the series: LeadProfilingScreen radioligand binding.
The next series addresses Sigma σ1 (Homo sapiens, UniProt Q99720). Nature of the series: LeadProfilingScreen radioligand binding.

Molecules are shown by their SMILES. A value given as a limit tells only on which side of the number the result lay.

Chain of Adenosine A2A (P29274 whole entry): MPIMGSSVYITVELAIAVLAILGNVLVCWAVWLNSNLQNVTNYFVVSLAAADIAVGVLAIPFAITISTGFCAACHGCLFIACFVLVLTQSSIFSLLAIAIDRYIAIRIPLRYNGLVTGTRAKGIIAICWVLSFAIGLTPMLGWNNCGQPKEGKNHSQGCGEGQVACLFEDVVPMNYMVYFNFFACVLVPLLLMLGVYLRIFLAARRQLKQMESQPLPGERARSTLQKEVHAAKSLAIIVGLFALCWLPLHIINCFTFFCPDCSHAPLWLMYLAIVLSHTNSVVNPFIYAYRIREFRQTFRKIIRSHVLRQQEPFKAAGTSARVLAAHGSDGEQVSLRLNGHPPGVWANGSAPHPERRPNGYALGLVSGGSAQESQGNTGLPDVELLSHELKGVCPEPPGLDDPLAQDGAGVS
Chain of Adenosine A3 (P0DMS8 whole entry): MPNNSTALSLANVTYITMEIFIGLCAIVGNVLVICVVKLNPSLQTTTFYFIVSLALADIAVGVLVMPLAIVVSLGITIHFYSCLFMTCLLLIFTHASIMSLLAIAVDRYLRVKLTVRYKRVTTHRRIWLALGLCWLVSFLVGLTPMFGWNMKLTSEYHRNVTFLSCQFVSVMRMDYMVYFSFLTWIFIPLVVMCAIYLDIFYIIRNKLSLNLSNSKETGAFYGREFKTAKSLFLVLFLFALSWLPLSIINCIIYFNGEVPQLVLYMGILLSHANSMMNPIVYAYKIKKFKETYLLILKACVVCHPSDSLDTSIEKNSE
Chain of Endothelin ETB (P24530 27-442): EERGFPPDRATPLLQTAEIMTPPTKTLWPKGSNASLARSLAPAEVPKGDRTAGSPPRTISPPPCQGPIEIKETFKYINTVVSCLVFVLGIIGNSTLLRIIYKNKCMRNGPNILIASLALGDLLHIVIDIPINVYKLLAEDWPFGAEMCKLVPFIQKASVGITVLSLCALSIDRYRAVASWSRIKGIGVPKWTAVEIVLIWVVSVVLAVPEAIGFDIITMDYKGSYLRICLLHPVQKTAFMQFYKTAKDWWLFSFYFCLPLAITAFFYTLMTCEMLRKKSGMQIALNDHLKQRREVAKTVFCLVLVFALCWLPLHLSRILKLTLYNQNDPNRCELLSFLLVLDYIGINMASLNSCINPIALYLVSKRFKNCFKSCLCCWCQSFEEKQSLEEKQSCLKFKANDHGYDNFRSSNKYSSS
Chain of Sigma σ1 (Q99720 whole entry): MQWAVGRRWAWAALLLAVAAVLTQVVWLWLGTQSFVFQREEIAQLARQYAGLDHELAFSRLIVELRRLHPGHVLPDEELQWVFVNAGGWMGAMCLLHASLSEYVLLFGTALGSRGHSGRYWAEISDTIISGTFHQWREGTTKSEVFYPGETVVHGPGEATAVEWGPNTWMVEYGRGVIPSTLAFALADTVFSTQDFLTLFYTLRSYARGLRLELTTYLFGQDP
Chain of Dopamine D2S (P14416 1-414 isoform P14416-2): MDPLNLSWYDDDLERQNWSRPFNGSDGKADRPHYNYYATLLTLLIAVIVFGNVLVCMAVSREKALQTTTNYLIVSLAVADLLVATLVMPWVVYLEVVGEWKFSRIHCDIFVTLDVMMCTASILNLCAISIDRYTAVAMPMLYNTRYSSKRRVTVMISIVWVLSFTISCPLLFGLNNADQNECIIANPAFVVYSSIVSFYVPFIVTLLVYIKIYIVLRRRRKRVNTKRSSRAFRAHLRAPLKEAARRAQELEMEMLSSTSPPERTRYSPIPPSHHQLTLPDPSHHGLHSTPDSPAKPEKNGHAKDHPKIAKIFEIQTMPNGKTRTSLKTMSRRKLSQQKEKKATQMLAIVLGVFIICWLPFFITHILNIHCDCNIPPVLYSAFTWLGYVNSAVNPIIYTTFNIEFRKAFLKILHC
Chain of Neuropeptide Y Y2 (P49146 whole entry): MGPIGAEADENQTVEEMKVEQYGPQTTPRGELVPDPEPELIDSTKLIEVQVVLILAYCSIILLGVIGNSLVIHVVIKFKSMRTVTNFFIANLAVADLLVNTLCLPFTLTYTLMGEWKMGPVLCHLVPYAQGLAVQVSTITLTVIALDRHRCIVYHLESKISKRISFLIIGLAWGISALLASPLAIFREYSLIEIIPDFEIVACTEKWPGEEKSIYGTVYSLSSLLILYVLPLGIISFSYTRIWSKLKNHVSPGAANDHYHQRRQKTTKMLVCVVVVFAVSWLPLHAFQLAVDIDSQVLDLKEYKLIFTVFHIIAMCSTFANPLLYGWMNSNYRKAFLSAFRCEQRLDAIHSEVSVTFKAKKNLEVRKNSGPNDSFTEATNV
Chain of Serotonin (5-Hydroxytryptamine) 5-HT1A (P08908 whole entry): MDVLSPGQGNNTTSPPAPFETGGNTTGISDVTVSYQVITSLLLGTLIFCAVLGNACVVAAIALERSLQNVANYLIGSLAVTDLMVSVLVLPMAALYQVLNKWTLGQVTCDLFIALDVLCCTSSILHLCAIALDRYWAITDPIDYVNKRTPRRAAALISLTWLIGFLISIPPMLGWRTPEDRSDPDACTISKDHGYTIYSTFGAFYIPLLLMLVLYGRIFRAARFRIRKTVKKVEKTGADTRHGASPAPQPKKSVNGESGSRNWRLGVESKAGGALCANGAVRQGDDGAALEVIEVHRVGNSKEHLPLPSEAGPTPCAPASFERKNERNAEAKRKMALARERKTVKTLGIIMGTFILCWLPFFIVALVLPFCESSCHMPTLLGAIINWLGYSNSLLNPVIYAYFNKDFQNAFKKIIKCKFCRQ
Chain of Androgen (Testosterone) (P10275 whole entry): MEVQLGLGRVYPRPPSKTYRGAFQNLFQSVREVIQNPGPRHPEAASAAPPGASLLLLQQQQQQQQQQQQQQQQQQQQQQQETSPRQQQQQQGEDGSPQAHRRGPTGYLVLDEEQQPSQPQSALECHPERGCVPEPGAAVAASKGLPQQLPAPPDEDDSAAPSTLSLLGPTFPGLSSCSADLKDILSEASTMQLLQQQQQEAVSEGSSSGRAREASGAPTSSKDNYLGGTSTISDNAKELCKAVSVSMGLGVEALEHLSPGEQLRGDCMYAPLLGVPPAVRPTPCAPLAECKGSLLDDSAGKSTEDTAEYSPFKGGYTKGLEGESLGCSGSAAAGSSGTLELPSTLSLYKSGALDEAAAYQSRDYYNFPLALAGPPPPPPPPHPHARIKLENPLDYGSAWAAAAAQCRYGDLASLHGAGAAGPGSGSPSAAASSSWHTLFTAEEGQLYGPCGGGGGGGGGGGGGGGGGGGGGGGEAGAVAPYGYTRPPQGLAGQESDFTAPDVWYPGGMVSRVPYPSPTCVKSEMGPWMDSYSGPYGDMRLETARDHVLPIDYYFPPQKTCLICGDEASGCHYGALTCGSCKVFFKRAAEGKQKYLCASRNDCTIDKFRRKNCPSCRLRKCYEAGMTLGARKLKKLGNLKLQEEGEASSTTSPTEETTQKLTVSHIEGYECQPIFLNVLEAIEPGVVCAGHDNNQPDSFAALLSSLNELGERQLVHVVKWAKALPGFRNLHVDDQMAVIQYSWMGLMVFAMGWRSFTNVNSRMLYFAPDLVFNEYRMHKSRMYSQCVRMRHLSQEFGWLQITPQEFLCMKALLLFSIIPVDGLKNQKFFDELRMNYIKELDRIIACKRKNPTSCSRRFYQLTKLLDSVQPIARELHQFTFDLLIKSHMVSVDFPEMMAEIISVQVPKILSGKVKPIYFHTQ

In general, solubility (kinetic) refers to solubility judged after dilution from a stock solution rather than from solid. Broadly, the inhibition is the relative decrease from the control value, in per cent. Broadly, the AUC is concentration integrated over time. High values mean high exposure, low ones low exposure. In general, MRT refers to a mean duration of stay, worked out from the concentration-time curve. One may read the half-life as the time needed for the level to fall by half in the phase considered. Lower therefore signals rapid decline. The term % inhibition denotes the share of the control response that was lost under treatment. Regarding `O=C(c1ccc(OCc2ccc(OC(F)(F)F)cc2)cc1)N1CCN(c2ccc(C(F)(F)F)cn2)CC1` [VU6032735], the kinetic solubility in “Kinetic solubility” is less than 0.95 µM. For the same molecule, the inhibition at 10 µM at Androgen (Testosterone) was 1%; at Neuropeptide Y Y2 it was 3%; on Dopamine D2S, -2%; on Adenosine A2A it was -6%; at Transporter, GABA it was -4%; on Adenosine A3, 9%. The values for the inhibition at 10 µM (on Endothelin ETB; in series [3]; at Sigma σ1) were 1%, -1% and -3%, respectively. Besides, in [1], the “Human CLhep, % Hepatic blood flow” value is on record as 23%. In series [1], the CLhep predicted at 1 μM was 4.8 mL/min/kg. Moreover, the AUC in [2] was determined as 114 ng·h/mL. The MRT in series [2] amounted to 2.66 h. In series [2], this molecule showed a half-life of 2.19 h. Further, in series [2], the Vd amounted to 4.69 L/kg. The clearance in series [2] stood at 29.3 mL/min/kg. In addition, the “% inhibition at 10 μM” value is given as 7% in the series on Rolipram and 12% with Phorbol Ester.

In the case of `Cc1cc(Cl)cc2sc(O[C@H]3CCN(C(=O)CCCS(=O)(=O)c4cccc(Br)c4)C[C@H]3F)nc12` [VU6047606], the kinetic solubility in the series “Kinetic solubility” was less than 0.85 µM. The inhibition at 10 µM was 8% at Androgen (Testosterone); 10% at Neuropeptide Y Y2; -7% on Dopamine D2S; 0% on Adenosine A2A; 4% on Transporter, GABA; 43% at Adenosine A3. The inhibition at 10 µM on Endothelin ETB is 9%; in series [3], -2%; at Sigma σ1, 62%. Further, the “Human CLhep, % Hepatic blood flow” value in series [1] was 74%. For the same molecule, the CLhep predicted at 1 μM in series [1] was more than 15 mL/min/kg. In addition, the AUC in series [2] worked out at 83.1 ng·h/mL. In [2], the MRT came to 2.09 h. In addition, the half-life in series [2] was 1.96 h. Moreover, in series [2], the Vd worked out at 5.03 L/kg. Further, the clearance in series [2] stood at 40.1 mL/min/kg. In addition, the “% inhibition at 10 μM” value was determined as 19% with Rolipram and 22% with Phorbol Ester.

Consider `Cc1cc(Cl)cc2sc(O[C@@H]3CCN(C(=O)CCCS(=O)(=O)c4cccc(Br)c4)C[C@H]3F)nc12` [VU6047607], for which the solubility (kinetic) in “Kinetic solubility” was less than 0.85 µM. In addition, in series [1], the “Human CLhep, % Hepatic blood flow” value stood at 82% and the CLhep predicted at 1 μM is 17.2 mL/min/kg. For the same molecule, in [2], the AUC is 47 ng·h/mL, the MRT was 1.58 h, the half-life was 1.8 h and the Vd was 6.75 L/kg. For the same molecule, the clearance in series [2] was determined as 71 mL/min/kg.

For the molecule `Cc1cc(Cl)cc2sc(O[C@@H]3CCN(C(=O)CCCS(=O)(=O)c4cccc(Br)c4)C[C@@H]3F)nc12` [VU6047608], the solubility (kinetic) in the series “Kinetic solubility” is less than 0.85 µM. Moreover, in series [1], the “Human CLhep, % Hepatic blood flow” value is recorded as 82% and the CLhep predicted at 1 μM is 17.1 mL/min/kg. Moreover, in series [2], the AUC worked out at 58.8 ng·h/mL, the MRT was determined as 1.7 h, the half-life was 1.65 h and the Vd is 5.77 L/kg. Further, the clearance in [2] was determined as 56.7 mL/min/kg.

As for `Cc1cc(Cl)cc2sc(O[C@H]3CCN(C(=O)CCCS(=O)(=O)c4cccc(Br)c4)C[C@@H]3F)nc12` [VU6047609], in the series “Kinetic solubility”, the solubility (kinetic) is less than 0.85 µM. In series [1], the “Human CLhep, % Hepatic blood flow” value amounted to 75% and the CLhep predicted at 1 μM is 15.8 mL/min/kg. For the same molecule, in series [2], the AUC was 45.2 ng·h/mL, the MRT is 2.36 h, the half-life is 2.91 h and the Vd stood at 10.5 L/kg. The clearance in [2] was 73.8 mL/min/kg.
